Here are results for two molecules from ChEMBL document CHEMBL5463729, “Data for DCP probe BAY 1753011” (2023).

The target of assay [1] is T1, Alpha-1A adrenergic receptor (Homo sapiens) (UniProt P35348).
T1 sequence (whole entry): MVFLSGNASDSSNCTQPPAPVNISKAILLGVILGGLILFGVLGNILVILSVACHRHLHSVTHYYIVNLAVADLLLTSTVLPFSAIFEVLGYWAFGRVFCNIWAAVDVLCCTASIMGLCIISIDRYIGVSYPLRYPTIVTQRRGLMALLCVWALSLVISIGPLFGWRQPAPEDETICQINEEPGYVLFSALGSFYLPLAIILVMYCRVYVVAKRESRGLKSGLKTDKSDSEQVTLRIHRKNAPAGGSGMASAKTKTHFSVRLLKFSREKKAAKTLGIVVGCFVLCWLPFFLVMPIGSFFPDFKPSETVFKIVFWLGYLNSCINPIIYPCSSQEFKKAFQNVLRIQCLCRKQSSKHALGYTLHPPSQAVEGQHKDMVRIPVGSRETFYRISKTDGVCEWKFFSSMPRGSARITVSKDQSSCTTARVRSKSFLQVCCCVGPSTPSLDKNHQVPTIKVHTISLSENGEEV
The assay is described as follows: Inhibition of Adrenergic alpha1A at compound concentration of 10.0 uM in the Eurofins-Panlabs radioligand binding assay (Eurofins_assay_203110). Also noted: ligand concentration 0.25 nM. As to conditions: Rattus norvegicus; Compound concentration 10.0 uM.

Assay [2] deals with Fibroblast growth factor receptor 4 (Homo sapiens) (UniProt P22455). The assay is described as follows: Inhibition of FGFR4(h) at 10.0 µM in the Eurofins Kinase panel. As to conditions: Compound concentration 10.0 uM.
Assay [3] concerns the target Glycogen synthase kinase-3 alpha (Homo sapiens) (UniProt P49840). The assay is described as follows: Inhibition of GSK3alpha(h) at 10.0 µM in the Eurofins Kinase panel. The following applies: Compound concentration 10.0 uM.
Assay [4] concerns the target TRAF2 and NCK-interacting protein kinase (Homo sapiens) (UniProt Q9UKE5). The assay is described as follows: Inhibition of TNIK(h) at 10.0 µM in the Eurofins Kinase panel. As to conditions: Compound concentration 10.0 uM.
Assay [5] concerns the target Equilibrative nucleoside transporter 1/2/3/4 (Homo sapiens) (UniProt Q99808+Q7RTT9+Q14542+Q9BZD2). The following applies: Compound concentration 10.0 uM.
The species named for assay [6] is Mus musculus. Description: Inhibition of Phorbol Ester at 10 µM in the Eurofins-Panlabs radioligand binding assay (Eurofins_assay_264500). Also noted: ligand concentration 3 nM. The following applies: Compound concentration 10.0 uM.
Assay [7] has as its target Prostaglandin E2 receptor EP4 subtype (Homo sapiens) (UniProt P35408). Description: Inhibition of Prostanoid EP4 at 10 µM in the Eurofins-Panlabs radioligand binding assay (Eurofins_assay_268420). On the set-up: ligand concentration 1 nM. As to conditions: Compound concentration 10.0 uM.
The species entered for assay [8] is Rattus norvegicus. The assay is described as follows: Inhibition of Thyroid Hormone at 10 µM in the Eurofins-Panlabs radioligand binding assay (Eurofins_assay_285900). Type of assay: protein assay. As to conditions: Compound concentration 10.0 uM.
Assay [9] concerns the target Prostaglandin G/H synthase 1 (Homo sapiens) (UniProt P23219). Description: Inhibition of Cyclooxygenase COX-1 at compound concentration of 10.0 uM in the Eurofins-Panlabs enzyme assay (Eurofins_assay_116020). As to conditions: Compound concentration 10.0 uM.
Assay [10] deals with Interstitial collagenase (Homo sapiens) (UniProt P03956). Description: Inhibition of Peptidase, Matrix Metalloproteinase-1 (MMP-1) at 10 µM in the Eurofins-Panlabs enzyme assay (Eurofins_assay_114110). The following applies: Compound concentration 10.0 uM.
Sequence of Interstitial collagenase (Homo sapiens) (P03956 whole entry): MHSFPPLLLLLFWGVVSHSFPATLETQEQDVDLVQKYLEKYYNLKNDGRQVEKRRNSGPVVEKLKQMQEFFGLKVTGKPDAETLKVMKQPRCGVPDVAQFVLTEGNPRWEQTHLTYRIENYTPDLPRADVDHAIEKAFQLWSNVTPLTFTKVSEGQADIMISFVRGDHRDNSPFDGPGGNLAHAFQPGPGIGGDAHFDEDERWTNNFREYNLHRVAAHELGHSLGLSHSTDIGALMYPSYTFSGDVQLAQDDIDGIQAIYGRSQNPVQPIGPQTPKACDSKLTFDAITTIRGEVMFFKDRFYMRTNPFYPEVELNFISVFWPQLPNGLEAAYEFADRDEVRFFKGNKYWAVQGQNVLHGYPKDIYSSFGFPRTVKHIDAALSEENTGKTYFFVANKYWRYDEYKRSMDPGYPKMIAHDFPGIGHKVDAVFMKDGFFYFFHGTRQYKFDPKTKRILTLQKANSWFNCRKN
Assay [11] has as its target Matrix metalloproteinase-9 (Homo sapiens) (UniProt P14780). Description: Inhibition of Peptidase, Matrix Metalloproteinase-9 (MMP-9) at 10 µM in the Eurofins-Panlabs enzyme assay (Eurofins_assay_114910). Also noted: substrate with concentration. As to conditions: Compound concentration 10.0 uM.
The target in assay [12] is Tyrosine-protein kinase Fyn (Homo sapiens) (UniProt P06241). Description: Inhibition of Protein Tyrosine Kinase, Fyn at 10 µM in the Eurofins-Panlabs enzyme assay (Eurofins_assay_172020). On the set-up: substrate with concentration. The following applies: Compound concentration 10.0 uM.
Sequence of Tyrosine-protein kinase Fyn (Homo sapiens) (P06241 2-537 limits assumed): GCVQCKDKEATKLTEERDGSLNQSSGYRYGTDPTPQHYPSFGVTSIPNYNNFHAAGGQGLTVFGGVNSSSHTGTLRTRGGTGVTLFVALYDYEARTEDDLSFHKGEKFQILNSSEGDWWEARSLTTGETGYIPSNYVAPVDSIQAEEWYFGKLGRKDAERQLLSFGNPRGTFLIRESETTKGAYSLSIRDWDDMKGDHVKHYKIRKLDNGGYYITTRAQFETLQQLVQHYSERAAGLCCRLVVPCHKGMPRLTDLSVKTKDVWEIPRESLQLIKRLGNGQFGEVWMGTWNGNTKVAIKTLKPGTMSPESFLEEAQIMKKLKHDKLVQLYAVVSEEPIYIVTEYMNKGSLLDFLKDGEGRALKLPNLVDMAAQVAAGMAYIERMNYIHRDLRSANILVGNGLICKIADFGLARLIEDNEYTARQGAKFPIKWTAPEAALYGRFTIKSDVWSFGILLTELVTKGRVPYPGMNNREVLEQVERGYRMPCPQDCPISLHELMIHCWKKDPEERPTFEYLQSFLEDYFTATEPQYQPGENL
Assay [13] addresses C-C chemokine receptor type 4 (Homo sapiens) (UniProt P51679). The assay is described as follows: Inhibition of Chemokine CCR4 at 10 µM in the Eurofins-Panlabs radioligand binding assay (Eurofins_assay_217660). As to conditions: Compound concentration 10.0 uM.
Assay [14] concerns the target C-C chemokine receptor type 5 (Homo sapiens) (UniProt P51681). Description: Inhibition of Chemokine CCR5 at 10 µM in the Eurofins-Panlabs radioligand binding assay (Eurofins_assay_217720). The following applies: Compound concentration 10.0 uM.
For assay [15], the target named is Melanocortin receptor 5 (Homo sapiens) (UniProt P33032). Description: Inhibition of Melanocortin MC5 at 10 µM in the Eurofins-Panlabs radioligand binding assay (Eurofins_assay_251400). Also noted: ligand concentration 0.035 nM. As to conditions: Compound concentration 10.0 uM.
Assay [16] deals with T2, 5-hydroxytryptamine receptor 3A (Homo sapiens) (UniProt P46098).
T2 sequence (whole entry): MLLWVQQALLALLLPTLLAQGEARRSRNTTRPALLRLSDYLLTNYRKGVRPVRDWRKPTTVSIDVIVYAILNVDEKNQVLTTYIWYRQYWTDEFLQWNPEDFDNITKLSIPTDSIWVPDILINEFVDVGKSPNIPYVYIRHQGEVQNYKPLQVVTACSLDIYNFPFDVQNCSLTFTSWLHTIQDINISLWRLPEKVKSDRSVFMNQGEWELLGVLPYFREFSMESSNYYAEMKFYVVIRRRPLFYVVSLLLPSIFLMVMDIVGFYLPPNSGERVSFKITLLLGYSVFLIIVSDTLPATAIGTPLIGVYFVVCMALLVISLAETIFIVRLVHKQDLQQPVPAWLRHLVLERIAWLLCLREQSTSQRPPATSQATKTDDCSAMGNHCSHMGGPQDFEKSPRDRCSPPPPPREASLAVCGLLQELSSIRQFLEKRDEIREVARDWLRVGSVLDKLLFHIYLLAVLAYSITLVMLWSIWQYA
The assay is described as follows: Inhibition of Serotonin (5-Hydroxytryptamine) 5-HT3 at 10 µM in the Eurofins-Panlabs radioligand binding assay (Eurofins_assay_271910). Also noted: ligand concentration 0.69 nM. As to conditions: Compound concentration 10.0 uM.

Assay [17] addresses 5-hydroxytryptamine receptor 6 (Homo sapiens) (UniProt P50406). Description: Inhibition of Serotonin (5-Hydroxytryptamine) 5-HT6 at 10 µM in the Eurofins-Panlabs radioligand binding assay (Eurofins_assay_272200). As to conditions: Compound concentration 10.0 uM.
For assay [18], the target named is Sigma intracellular receptor 2 (Homo sapiens) (UniProt Q5BJF2). The assay is described as follows: Inhibition of Sigma 2 at 10 µM in the Eurofins-Panlabs radioligand binding assay (Eurofins_assay_278200). On the set-up: ligand concentration 3 nM. As to conditions: Rattus norvegicus; Compound concentration 10.0 uM.
Sequence of Sigma intracellular receptor 2 (Homo sapiens) (Q5BJF2 whole entry): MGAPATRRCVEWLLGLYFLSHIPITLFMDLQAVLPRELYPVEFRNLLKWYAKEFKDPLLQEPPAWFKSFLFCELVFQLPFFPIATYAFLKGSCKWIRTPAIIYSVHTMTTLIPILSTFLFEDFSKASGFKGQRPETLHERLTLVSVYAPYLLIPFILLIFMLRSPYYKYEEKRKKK
Assay [19] deals with Protein kinase C alpha type (Homo sapiens) (UniProt P17252). Description: Inhibition of Protein Serine/Threonine Kinase, PRKCA (PKCα) at 10 µM in the Eurofins-Panlabs enzyme assay (Eurofins_assay_180010). As to conditions: Compound concentration 10.0 uM. On the set-up: substrate with concentration Histone, incubation time 10 min, incubation temperature 25 °C.
Assay [20] concerns the target mTOR/FKBP12A/FKBP12B (Homo sapiens) (UniProt P62942+P68106+P42345). Description: Inhibition of mTOR FKBP12(h) at 10.0 µM in the Eurofins Kinase panel. The following applies: Compound concentration 10.0 uM. Type of assay: protein-complex assay.
For assay [21], the target named is RAC-alpha serine/threonine-protein kinase (Homo sapiens) (UniProt P31749). The assay is described as follows: Inhibition of PKBalpha(h) at 10.0 µM in the Eurofins Kinase panel. As to conditions: Compound concentration 10.0 uM.
The target of assay [22] is Beta-1 adrenergic receptor (Homo sapiens) (UniProt P08588). As to conditions: Compound concentration 10.0 uM.
Sequence of Beta-1 adrenergic receptor (Homo sapiens) (P08588 whole entry, looked up): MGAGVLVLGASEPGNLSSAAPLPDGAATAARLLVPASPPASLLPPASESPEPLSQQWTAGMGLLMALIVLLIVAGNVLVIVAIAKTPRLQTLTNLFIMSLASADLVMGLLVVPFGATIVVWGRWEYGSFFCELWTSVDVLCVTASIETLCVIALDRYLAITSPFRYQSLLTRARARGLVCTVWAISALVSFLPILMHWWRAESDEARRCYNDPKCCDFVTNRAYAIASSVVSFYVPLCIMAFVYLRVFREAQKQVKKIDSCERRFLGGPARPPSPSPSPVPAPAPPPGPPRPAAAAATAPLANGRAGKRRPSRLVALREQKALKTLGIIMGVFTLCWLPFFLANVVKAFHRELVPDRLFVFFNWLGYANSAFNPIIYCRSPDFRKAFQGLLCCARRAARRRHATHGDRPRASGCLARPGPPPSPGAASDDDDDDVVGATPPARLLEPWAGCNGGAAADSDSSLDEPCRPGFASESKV
Assay [23] has as its target Beta-2 adrenergic receptor (Homo sapiens) (UniProt P07550). As to conditions: Compound concentration 10.0 uM.
Assay [24] has as its target Cannabinoid receptor 1 (Homo sapiens) (UniProt P21554). The following applies: Compound concentration 10.0 uM.
Assay [25] has as its target Histamine H3 receptor (Homo sapiens) (UniProt Q9Y5N1). The following applies: Compound concentration 10.0 uM.

The structures appear in SMILES notation.

Sequence of Beta-2 adrenergic receptor (Homo sapiens) (P07550 whole entry, looked up): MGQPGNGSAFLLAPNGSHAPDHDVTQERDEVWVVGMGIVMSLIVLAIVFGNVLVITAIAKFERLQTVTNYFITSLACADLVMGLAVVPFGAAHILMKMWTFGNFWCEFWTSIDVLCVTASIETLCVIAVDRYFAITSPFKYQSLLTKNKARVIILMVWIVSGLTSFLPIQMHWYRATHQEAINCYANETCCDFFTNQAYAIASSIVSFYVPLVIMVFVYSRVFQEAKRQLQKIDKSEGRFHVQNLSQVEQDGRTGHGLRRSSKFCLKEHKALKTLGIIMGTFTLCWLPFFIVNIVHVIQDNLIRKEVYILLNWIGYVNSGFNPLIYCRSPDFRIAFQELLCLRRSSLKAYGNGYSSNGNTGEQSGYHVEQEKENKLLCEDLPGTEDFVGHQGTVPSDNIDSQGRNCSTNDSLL
Sequence of C-C chemokine receptor type 4 (Homo sapiens) (P51679 whole entry): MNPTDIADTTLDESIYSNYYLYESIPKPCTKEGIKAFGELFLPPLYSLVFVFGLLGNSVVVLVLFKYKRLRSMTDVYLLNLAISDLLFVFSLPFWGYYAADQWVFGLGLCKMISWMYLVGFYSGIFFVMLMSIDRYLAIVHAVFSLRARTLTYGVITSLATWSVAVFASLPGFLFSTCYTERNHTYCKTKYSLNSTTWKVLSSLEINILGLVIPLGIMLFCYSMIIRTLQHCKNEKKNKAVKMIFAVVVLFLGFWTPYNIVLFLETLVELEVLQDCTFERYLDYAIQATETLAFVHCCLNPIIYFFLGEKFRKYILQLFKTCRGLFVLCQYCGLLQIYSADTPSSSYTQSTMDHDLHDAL
Sequence of TRAF2 and NCK-interacting protein kinase (Homo sapiens) (Q9UKE5 whole entry, looked up): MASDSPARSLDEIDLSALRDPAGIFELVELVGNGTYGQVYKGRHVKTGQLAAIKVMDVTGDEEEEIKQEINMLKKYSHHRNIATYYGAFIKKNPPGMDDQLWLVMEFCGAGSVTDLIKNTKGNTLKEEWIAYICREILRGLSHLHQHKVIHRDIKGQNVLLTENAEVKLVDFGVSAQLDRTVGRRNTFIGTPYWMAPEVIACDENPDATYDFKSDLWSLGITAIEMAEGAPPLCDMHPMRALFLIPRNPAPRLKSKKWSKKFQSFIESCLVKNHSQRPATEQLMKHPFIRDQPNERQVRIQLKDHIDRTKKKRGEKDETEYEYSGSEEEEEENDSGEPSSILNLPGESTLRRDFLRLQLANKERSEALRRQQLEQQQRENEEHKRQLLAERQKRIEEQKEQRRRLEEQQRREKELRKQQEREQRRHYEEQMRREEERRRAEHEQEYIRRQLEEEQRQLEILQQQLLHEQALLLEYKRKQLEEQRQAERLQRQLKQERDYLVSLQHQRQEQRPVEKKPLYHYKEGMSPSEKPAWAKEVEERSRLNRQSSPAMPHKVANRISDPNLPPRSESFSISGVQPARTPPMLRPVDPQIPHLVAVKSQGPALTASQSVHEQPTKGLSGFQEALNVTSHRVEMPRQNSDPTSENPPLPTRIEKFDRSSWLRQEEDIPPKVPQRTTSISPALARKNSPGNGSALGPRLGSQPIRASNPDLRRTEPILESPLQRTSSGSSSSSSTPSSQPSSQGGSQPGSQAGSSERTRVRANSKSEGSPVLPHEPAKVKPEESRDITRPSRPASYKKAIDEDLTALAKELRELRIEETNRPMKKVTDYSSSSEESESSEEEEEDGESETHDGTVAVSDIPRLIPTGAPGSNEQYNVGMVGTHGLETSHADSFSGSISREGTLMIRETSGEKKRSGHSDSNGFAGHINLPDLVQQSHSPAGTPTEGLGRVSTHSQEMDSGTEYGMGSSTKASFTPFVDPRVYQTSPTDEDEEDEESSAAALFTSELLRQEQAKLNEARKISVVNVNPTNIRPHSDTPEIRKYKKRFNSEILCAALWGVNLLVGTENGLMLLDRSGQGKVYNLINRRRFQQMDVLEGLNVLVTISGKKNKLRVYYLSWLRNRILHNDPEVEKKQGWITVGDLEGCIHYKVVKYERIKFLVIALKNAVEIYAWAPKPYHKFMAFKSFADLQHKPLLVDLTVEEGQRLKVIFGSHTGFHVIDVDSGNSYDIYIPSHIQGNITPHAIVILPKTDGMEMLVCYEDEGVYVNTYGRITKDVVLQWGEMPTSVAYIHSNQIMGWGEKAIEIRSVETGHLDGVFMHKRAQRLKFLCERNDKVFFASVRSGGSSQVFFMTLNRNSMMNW
Sequence of Prostaglandin G/H synthase 1 (Homo sapiens) (P23219 whole entry): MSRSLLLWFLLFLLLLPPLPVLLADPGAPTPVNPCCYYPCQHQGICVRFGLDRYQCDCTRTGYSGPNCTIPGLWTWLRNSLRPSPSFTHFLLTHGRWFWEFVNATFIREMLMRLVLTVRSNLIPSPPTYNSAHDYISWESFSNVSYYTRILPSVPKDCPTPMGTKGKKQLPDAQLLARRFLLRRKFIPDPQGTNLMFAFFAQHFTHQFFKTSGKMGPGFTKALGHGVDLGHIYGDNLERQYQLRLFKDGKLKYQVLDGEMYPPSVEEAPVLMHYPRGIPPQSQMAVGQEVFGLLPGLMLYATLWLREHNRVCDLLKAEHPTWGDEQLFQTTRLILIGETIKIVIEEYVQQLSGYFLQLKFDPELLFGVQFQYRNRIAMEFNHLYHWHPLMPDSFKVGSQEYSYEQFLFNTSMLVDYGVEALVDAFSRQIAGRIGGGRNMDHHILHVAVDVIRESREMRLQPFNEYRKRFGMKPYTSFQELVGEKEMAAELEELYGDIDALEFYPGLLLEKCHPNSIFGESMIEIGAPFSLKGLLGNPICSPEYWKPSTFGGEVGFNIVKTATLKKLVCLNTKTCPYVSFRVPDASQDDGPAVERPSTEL
Sequence of Cannabinoid receptor 1 (Homo sapiens) (P21554 whole entry): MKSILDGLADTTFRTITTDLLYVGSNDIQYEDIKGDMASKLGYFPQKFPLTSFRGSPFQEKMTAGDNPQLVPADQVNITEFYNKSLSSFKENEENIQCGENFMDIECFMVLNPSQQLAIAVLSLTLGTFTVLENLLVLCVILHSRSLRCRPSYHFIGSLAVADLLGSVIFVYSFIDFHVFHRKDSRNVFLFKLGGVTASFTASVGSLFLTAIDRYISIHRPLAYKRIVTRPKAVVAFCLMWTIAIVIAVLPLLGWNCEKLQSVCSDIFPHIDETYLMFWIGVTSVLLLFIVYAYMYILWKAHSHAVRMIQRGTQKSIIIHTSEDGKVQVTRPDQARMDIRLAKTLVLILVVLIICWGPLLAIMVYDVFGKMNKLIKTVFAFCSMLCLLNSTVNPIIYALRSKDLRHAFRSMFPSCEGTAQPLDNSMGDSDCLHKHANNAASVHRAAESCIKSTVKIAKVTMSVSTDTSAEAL

On to `O=c1n(Cc2cncn2-c2cccc(Cl)c2)nc(-c2ccc(Cl)cc2)n1C[C@H](O)C(F)(F)F`, for which the inhibition (in general, the relative decrease from the control value, in per cent) in assay [1] was 3%; in [2], -8.35%; in assay [3], -1.7%; in assay [4], -7.62%; in assay [5], 10%.

For the molecule `C[C@H](O)c1nc(Cn2nc(-c3ccc(Cl)cc3)n(C[C@H](O)C(F)(F)F)c2=O)nn1-c1cccc(Cl)c1` [PECAVAPTAN], the inhibition in assay [6] is 3%; in assay [7], 16%; in assay [8], 6%; in assay [9] it was -3%; in assay [10], 3%; in [11], -2%. The inhibition in [12] is -6%; in assay [13], -2%; in assay [14], -3%; in assay [15], 13%; in assay [16], -2%; in assay [17], 4%. Further, the inhibition in [18] was 5%; in assay [19], -2%; in assay [20] it was 2.46%; in [21], -3.88%; in assay [22] it was -7.44%; in [23] it was -4.34%. In addition, the inhibition in assay [24] is 34%; in [25], -1%.
